The values below come from PubChem BioAssay AID1845198 (Molecular Pharmacology Branch, DTP, NCI, 2023).

The test system of this assay is 425362-245-T-J1 tumor spheroids, viability % test/control. Kind of assay: Anticancer human tumor 425362-245-T-J1 patient-derived melanoma cell line growth inhibition. To be noted: spheroids with HUVEC and MSC; for viability, T/C: stronger effect = lower value. An excerpt:
Multicellular complex tumor spheroid response to DNA repair inhibitors in combination with DNA-damaging drugs
This study explores the anticancer activities of DNA-damaging drugs and inhibitors of DNA damage repair, both as single agents and in combinations. Complex tumor spheroids comprised of malignant cells, endothelial cells and mesenchymal stem cells served as an in vitro model for human solid tumors. This model system incorporates physiologically relevant features and patient-derived or established malignant cell lines with clinically relevant genetic alterations from many tumor types. Twenty-six patient-derived or established malignant cell lines were evaluated representing sarcoma, melanoma, small cell lung cancer (SCLC), non-small cell lung cancer (NSCLC), as well as bladder, ovarian and pancreatic cancers. The concentration ranges selected for each drug and investigational agent were based upon clinically achievable concentrations if the clinical Cmax of the agent was known.
Compounds. The drugs and compounds olaparib (NSC753686), talazoparib (NSC767125), berzosertib (NSC777718), elimusertib (NSC800525), nedisertib (NSC802822), VX-984 (NSC792969), AZD-1390 (NSC803789), temozolomide (NSC362856), topotecan (NSC609699), trabectedin (NSC813783), staurosporine (NSC755774), and gemcitabine (NSC613327) were obtained from the National Cancer Institute (NCI) Developmental Therapeutics Program Chemical Repository. The FDA-approved anticancer drug set is available from the Developmental Therapeutics Program at https://dtp.cancer.gov/organization/dscb/obtaining/available_plates.htm. […] The stock solutions were prepared in dimethyl sulfoxide (DMSO, Sigma-Aldrich, St. Louis, MO, cat. D2650) at 400-fold the tested concentration and stored at -70 degrees C. Prior to their use, the stock solutions were diluted in fresh medium and the final DMSO concentration in the assay was 0.25% (v/v). All drugs and investigational agents were tested over a range starting from a high concentration at or near the clinical Cmax and decreasing in half-log increments. If the clinical Cmax for an agent had not been determined, the highest concentration tested was 10 microM.
Cell Lines. The patient-derived cancer cell (PDC) lines: 156681-154-R-J1-PDC, 283228-195-R-J1-PDC, 287954-098-R-J1-PDC, 292921-168-R-J2-PDC, 349418-098-R-PDC, 425362-245-T-J1-PDC, 556581-035-R-J1-PDC, and BL0293-F563-PDC were received from the NCI Patient-Derived Models Repository (PDMR, https://pdmr.cancer.gov). The established cell lines HS-SY-2 (RRID:CVCL_8719), MPNST, and SYO-1 (RRID:CVCL_7146) were obtained from the Sloan Kettering Institute. The alveolar soft parts sarcoma cell line ASPS-1 (RRID:CVCL_S738) was established at the NCI and grown from internal seed stocks. The following established cell lines were purchased from the American Type Culture Collection (ATCC, Manassas, VA): G-401 (ATCC, cat. CRL-1441, RRID:CVCL_0270), SW982 (ATCC, cat. HTB-93, RRID:CVCL_1734), VA-ES-BJ (ATCC, cat. CRL-2138, RRID:CVCL_1785), NCI-H719 (ATCC, cat. CRL-5837, RRID:CVCL_1582), NCI-H196 (ATCC, cat. CRL-5823, RRID:CVCL_1509), NCI-H841 (ATCC, cat. CRL-5845, RRID:CVCL_1595), NCI-H1618 (ATCC, cat. CRL-5879, RRID:CVCL_1480), NCI-H1876 (ATCC, cat. CRL-5902, RRID:CVCL_1503), DMS 114 (ATCC, cat. CRL-2066; RRID:CVCL_1174), NCI-H211 (ATCC, cat. CRL-5824; RRID:CVCL_1529), and SW 1271 (ATCC, cat. CRL-2177, RRID:CVCL_1716). The small cell lung cancer cell line COR-L88 was purchased from Sigma-Aldrich (cat. 92031917-1VL, RRID:CVCL_1141). The non-small cell lung cancer cell lines NCI-H226 (RRID:CVCL_1544) and NCI-H322M (RRID:CVCL_1557) were established at the NCI and grown from internal seed stocks. Pooled donor human umbilical vein endothelial cells (HUVEC, Lonza, cat. CC-2519) and human mesenchymal stem cells (hMSC, Lonza, cat. PT-2501) were purchased from Lonza (Walkersville, MD).
Cell Culture. All cells were maintained in an incubator at 37 degrees C and 5% CO2 with 95% humidity. […]

Structures are written as SMILES. Where “and” joins values, the source holds several entries; their conditions need not be identical. Equal entries are not always repeated. Where only a bound is given, the exact number is not on record here.
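Further: spheroids exposed to agents for 7 days.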
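Wherever viability, T/C is given: 100% = DMSO vehicle control viability.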

`COc1ccc([C@@H](O)c2cc(-c3ncnc4cc(N5CCOCC5)ccc34)c(F)cc2Cl)nn1` + COc1cc2c(cc1O)CCNC21CSC2c3c(OC(C)=O)c(C)c4c(c3C(COC1=O)N1C(O)C3Cc5cc(C)c(OC)c(O)c5C(C21)N3C)OCO4: the IC50 (curve of first compound, second compound 30 pM) worked out at 1490 nM; the IC50 (curve of first compound, second compound 94.9 pM) worked out at 889 nM; the IC50 (curve of first compound, second compound 0.0003 µM) is less than 31.6 nM; the IC50 (curve of first compound, second compound 0.000949 µM) is less than 31.6 nM; the IC50 (curve of first compound, second compound 0.003 µM) was less than 31.6 nM. Besides, the viability, T/C runs as follows: (second compound 30 pM, first compound 0.0316 µM) 94.5%; (second compound 30 pM, first compound 0.1 µM) 108%; (second compound 30 pM, first compound 0.316 µM) 93.6%; (second compound 30 pM, first compound 1 µM) 58.5%; (second compound 30 pM, first compound 3.16 µM) 32.7%; (second compound 30 pM, first compound 10 µM) 15.9%. Besides, the viability, T/C runs as follows: (second compound 94.9 pM, first compound 0.0316 µM) 91%; (second compound 94.9 pM, first compound 0.1 µM) 91.2%; (second compound 94.9 pM, first compound 0.316 µM) 84.3%; (second compound 94.9 pM, first compound 1 µM) 44.4%; (second compound 94.9 pM, first compound 3.16 µM) 26.5%; (second compound 94.9 pM, first compound 10 µM) 14.2%. Also, the viability, T/C was 49.2% (second compound 0.0003 µM, first compound 0.0316 µM); 42.5% (second compound 0.0003 µM, first compound 0.1 µM); 36.6% (second compound 0.0003 µM, first compound 0.316 µM); 3.35% (second compound 0.0003 µM, first compound 1 µM); 0.22% (second compound 0.0003 µM, first compound 3.16 µM); 0.19% (second compound 0.0003 µM, first compound 10 µM). In addition, the viability, T/C runs as follows: (second compound 0.000949 µM, first compound 0.0316 µM) 0.4%; (second compound 0.000949 µM, first compound 0.1 µM) 0.23%; (second compound 0.000949 µM, first compound 0.316 µM) 0.14%; (second compound 0.000949 µM, first compound 1 µM) 0.08%; (second compound 0.000949 µM, first compound 3.16 µM) 0.05%; (second compound 0.000949 µM, first compound 10 µM) 0.22%. The viability, T/C (second compound 0.003 µM, first compound 0.0316 µM) is 0.28%; the viability, T/C (second compound 0.003 µM, first compound 0.1 µM) is 0.35%; the viability, T/C (second compound 0.003 µM, first compound 0.316 µM) was 0.35%; the viability, T/C (second compound 0.003 µM, first compound 1 µM) is 0.33%; the viability, T/C (second compound 0.003 µM, first compound 3.16 µM) is 0.3%; the viability, T/C (second compound 0.003 µM, first compound 10 µM) was 0.39%.

For `Cc1sc2c(c1C)C(c1ccc(Cl)cc1)=NC(CC(=O)Nc1ccc(O)cc1)c1nnc(C)n1-2` (configuration not stated), the viability, T/C (compound 0.00949 µM) is 97.8% and 84.1% and 108%; the viability, T/C (compound 0.03 µM) was 91.2% and 76% and 93%; the viability, T/C (compound 0.0949 µM) was 49.5% and 47.9% and 42.8%; the viability, T/C (compound 0.3 µM) is 12.8% and 12% and 8.15%; the viability, T/C (compound 0.949 µM) was 5.36% and 3.14% and 2.44%; the viability, T/C (compound 3 µM) was 2.57% and 1.92% and 2.11%. Moreover, for the setting “curve of compound”, the IC50 is 95.3 nM and 85.6 nM and 80.2 nM.
